Reference: ChEMBL document CHEMBL5614438, “CETZOLE Analogs as Potent Ferroptosis Inducers and Their Target Identification Using Covalent/Affinity Probes” (J Med Chem, 2024)
Calls of active or inactive are those of the source. No cut-off for these calls is given here.

Tests used:
WI-38 = assay: Cytotoxicity against human WI-38 cells assessed as reduction in cell viability at 1 uM incubated for 3 days by methylene blue staining based spectrophotometric analysis; type: toxicity; conditions: wi-38, 72 h, time 3 day
MOLT-4 = assay: Cytotoxicity against human MOLT-4 cells assessed as reduction in cell growth at 10 uM; type: functional, cell-based
SK-OV-3 = assay: Cytotoxicity against human SK-OV-3 cells assessed as reduction in cell growth at 10 uM; type: functional, cell-based
NCI-H522 [1] = assay: Induction of ferroptosis in human NCI-H522 cells assessed as cell viability incubated for 3 days in presence of liproxstatin-1 by methylene blue staining based spectrophotometric analysis relative to control; type: functional; conditions: time 3 day
NCI-H522 [2] = assay: Induction of ferroptosis in human NCI-H522 cells assessed as cell death at 0.51 uM incubated for 3 days by methylene blue staining based spectrophotometric analysis relative to control; type: functional; conditions: time 3 day
SN12C = assay: Cytotoxicity against human SN12C cells assessed as reduction in cell growth at 10 uM; type: functional, cell-based
CAKI-1 = assay: Cytotoxicity against human CAKI-1 cells assessed as reduction in cell growth at 10 uM; type: functional, cell-based
MEF = assay: Cytotoxicity against mouse MEF cells assessed as reduction in cell viability at 1 uM incubated for 3 days by methylene blue staining based spectrophotometric analysis; type: toxicity; conditions: 72 h, time 3 day
NCI-H522 [3] = assay: Induction of ferroptosis in human NCI-H522 cells incubated for 3 days in presence of liproxstatin-1 by methylene blue staining based spectrophotometric analysis; type: functional, cell-based; conditions: time 3.0 day
HT-1080 [4] = assay: Cytotoxicity against human HT-1080 cells assessed as reduction in cell viability at 1 uM incubated for 3 days by methylene blue staining based spectrophotometric analysis; type: functional; conditions: time 3.0 day
NCI/ADR-RES = assay: Cytotoxicity against human NCI-ADR-RES cells assessed as reduction in cell growth at 10 uM; type: functional, cell-based
NCI-H522 [5] = assay: Cytotoxicity against human NCI-H522 cells assessed as reduction in cell viability at 1 uM incubated for 3 days by methylene blue staining based spectrophotometric analysis; type: functional; conditions: time 3.0 day
OVCAR-3 = assay: Cytotoxicity against human OVCAR-3 cells assessed as reduction in cell growth at 10 uM; type: functional, cell-based
RXF 393 = assay: Cytotoxicity against human RXF 393 cells assessed as reduction in cell growth at 10 uM; type: functional, cell-based
OVCAR-5 = assay: Cytotoxicity against human OVCAR-5 cells assessed as reduction in cell growth at 10 uM; type: functional, cell-based
[6] = molecular target: T1, Peroxiredoxin-4 (Homo sapiens) (UniProt Q13162); assay: Inhibition of PRDX4 (unknown origin)
T1 sequence (whole entry): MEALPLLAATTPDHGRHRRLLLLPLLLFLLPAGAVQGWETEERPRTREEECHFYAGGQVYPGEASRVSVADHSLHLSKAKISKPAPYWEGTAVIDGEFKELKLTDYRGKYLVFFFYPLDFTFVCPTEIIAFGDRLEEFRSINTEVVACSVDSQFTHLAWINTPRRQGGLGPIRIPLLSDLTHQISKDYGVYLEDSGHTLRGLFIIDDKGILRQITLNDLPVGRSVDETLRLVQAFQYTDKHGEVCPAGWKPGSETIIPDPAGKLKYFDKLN

MDA-MB-231 = assay: Cytotoxicity against human MDA-MB-231 cells assessed as reduction in cell viability incubated for 3 days by methylene blue staining based spectrophotometric analysis; type: functional; conditions: MDA-MB-231, 72 h, time 3 day
OVCAR-8 = assay: Cytotoxicity against human OVCAR-8 cells assessed as reduction in cell growth at 10 uM; type: functional, cell-based
CCRF-CEM = assay: Cytotoxicity against human CCRF-CEM cells assessed as reduction in cell growth at 10 uM; type: functional, cell-based
UO-31 [7] = assay: Cytotoxicity against human UO-31 cells assessed as reduction in cell growth at 10 uM; type: functional, cell-based
786-0 [8] = assay: Cytotoxicity against human 786-0 cells assessed as reduction in cell growth at 10 uM; type: functional, cell-based
NCI-H522 [9] = assay: Cytotoxicity against human NCI-H522 cells overexpressing GFP-tagged RV assessed as reduction in cell viability incubated for 3 days by methylene blue staining based spectrophotometric analysis; type: functional; conditions: NCI-H522, 72 h, time 3 day
SR = assay: Cytotoxicity against human SR cells assessed as reduction in cell growth at 10 uM; type: functional, cell-based
OVCAR-4 = assay: Cytotoxicity against human OVCAR-4 cells assessed as reduction in cell growth at 10 uM; type: functional, cell-based
NCI-H522 [10] = assay: Induction of cell death in human NCI-H522 cells at 10 uM incubated for 3 to 4 hrs by live cell imaging analysis relative to control; type: functional; conditions: time 3-4 hrs
[11] = molecular target: Phospholipid hydroperoxide glutathione peroxidase GPX4 (Homo sapiens) (UniProt P36969); assay: Inhibition of recombinant GPX4 (unknown origin) at 100 uM incubated for 60 mins followed by NADPH addition
NCI-H522 [12] = assay: Cytotoxicity against human NCI-H522 cells assessed as reduction in cell viability incubated for 3 days by methylene blue staining based spectrophotometric analysis; type: functional; conditions: NCI-H522, 72 h, time 3 day
K562 = assay: Cytotoxicity against human K562 cells assessed as reduction in cell growth at 10 uM; type: functional, cell-based
U2OS = assay: Cytotoxicity against human U2OS cells assessed as reduction in cell viability incubated for 3 days by methylene blue staining based spectrophotometric analysis; type: functional; conditions: 72 h, time 3 day
HL-60 = assay: Cytotoxicity against human HL-60 cells assessed as reduction in cell growth at 10 uM; type: functional, cell-based
[13] = molecular target: Glucose-6-phosphate 1-dehydrogenase (Homo sapiens) (UniProt P11413); assay: Inhibition of G6PD in human HCT-116 cells using G6P as substrate assessed as reduction in enzyme activity by measuring absorbance at 100 uM incubated for 20 mins followed by G6P and […]; type: cell-based
NCI-H522 [14] = assay: Induction of ferroptosis in human NCI-H522 cells assessed as increase in intracellular lipid peroxidation accumulation at 0.51 uM incubated for 6 hrs by C11 BODIPY 581/591 staining based flow cytometry; type: functional, cell-based
NCI-H522 [15] = assay: Cytotoxicity against human NCI-H522 cells overexpressing GFP-tagged SLC7A11 assessed as reduction in cell viability incubated for 3 days by methylene blue staining based spectrophotometric analysis; type: functional; conditions: NCI-H522, 72 h, time 3 day
[16] = molecular target: Glucose-6-phosphate 1-dehydrogenase (Homo sapiens) (UniProt P11413); assay: Inhibition of G6PD in human HCT-116 cells using G6P as substrate at 100 uM incubated for 20 mins followed by G6P and […]; type: cell-based
IGROV-1 = assay: Cytotoxicity against human IGROV-1 cells assessed as reduction in cell growth by measuring cell viability at 10 uM relative to control; type: functional
786-0 [17] = assay: Cytotoxicity against human 786-0 cells assessed as reduction in cell growth by measuring cell viability at 10 uM relative to control; type: functional
HT-1080 [18] = assay: Cytotoxicity against human HT-1080 cells assessed as reduction in cell viability incubated for 3 days by methylene blue staining based spectrophotometric analysis; type: functional; conditions: HT-1080, 72 h, time 3 day
UO-31 [19] = assay: Cytotoxicity against human UO-31 cells assessed as reduction in cell growth by measuring cell viability at 10 uM relative to control; type: functional
ACHN = assay: Cytotoxicity against human ACHN cells assessed as reduction in cell growth at 10 uM; type: functional, cell-based
RPMI-8226 = assay: Cytotoxicity against human RPMI-8226 cells assessed as reduction in cell growth at 10 uM; type: functional, cell-based
TK-10 = assay: Cytotoxicity against human TK-10 cells assessed as reduction in cell growth at 10 uM; type: functional, cell-based
NCI-H522 [20] = assay: Induction of ferroptosis in human NCI-H522 cells assessed as reduction in cell viability at 7.8 uM incubated for 3 days in presence of liproxstatin-1 by methylene blue staining based spectrophotometric analysis; type: functional; conditions: time 3.0 day
NCI-H522 [21] = assay: Induction of ferroptosis in human NCI-H522 cells assessed as cell viability at 7.8 uM incubated for 3 days in presence of liproxstatin-1 by methylene blue staining based spectrophotometric analysis relative to control; type: functional; conditions: NCI-H522, 72 h, time 3 day, read-out: Activity
[22] = Drug localization in human HeLa cell vacuole incubated for 1 hr by TAMRA/Hoechst dye based fluorescent live cell imaging analysis; type: ADME, subcellular
NCI-H522 [23] = assay: Induction of ferroptosis in human NCI-H522 cells assessed as reduction in cell viability at 6.93 uM incubated for 3 days in presence of liproxstatin-1 by methylene blue staining based spectrophotometric analysis; type: functional; conditions: time 3.0 day
NCI-H522 [24] = assay: Induction of ferroptosis in human NCI-H522 cells assessed as cell viability at 6.93 uM incubated for 3 days in presence of liproxstatin-1 by methylene blue staining based spectrophotometric analysis relative to control; type: functional; conditions: NCI-H522, 72 h, time 3 day, read-out: Activity
[25] = Drug localization in human HeLa cell nucleus incubated for 1 hr by TAMRA/Hoechst dye based fluorescent live cell imaging analysis; type: ADME, subcellular

Sequence of Glucose-6-phosphate 1-dehydrogenase (Homo sapiens) (P11413 whole entry): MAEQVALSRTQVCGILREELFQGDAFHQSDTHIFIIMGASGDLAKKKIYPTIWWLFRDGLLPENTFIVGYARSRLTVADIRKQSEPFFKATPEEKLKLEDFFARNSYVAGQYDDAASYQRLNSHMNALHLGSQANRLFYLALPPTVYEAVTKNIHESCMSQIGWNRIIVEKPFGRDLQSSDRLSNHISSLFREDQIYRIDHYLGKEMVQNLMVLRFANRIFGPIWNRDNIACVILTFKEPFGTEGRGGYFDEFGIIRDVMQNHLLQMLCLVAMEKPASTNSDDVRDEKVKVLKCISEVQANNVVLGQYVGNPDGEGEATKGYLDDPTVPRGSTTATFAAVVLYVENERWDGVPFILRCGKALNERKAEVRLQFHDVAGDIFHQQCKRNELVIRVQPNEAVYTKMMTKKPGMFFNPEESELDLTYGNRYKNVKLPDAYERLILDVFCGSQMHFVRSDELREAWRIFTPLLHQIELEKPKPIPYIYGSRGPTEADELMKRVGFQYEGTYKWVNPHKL
Sequence of Phospholipid hydroperoxide glutathione peroxidase GPX4 (Homo sapiens) (P36969 whole entry): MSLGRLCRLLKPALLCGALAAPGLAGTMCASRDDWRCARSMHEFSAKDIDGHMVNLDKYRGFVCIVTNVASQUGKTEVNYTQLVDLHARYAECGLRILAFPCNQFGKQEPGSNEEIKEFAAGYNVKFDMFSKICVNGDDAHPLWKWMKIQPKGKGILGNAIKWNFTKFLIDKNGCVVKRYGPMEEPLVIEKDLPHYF

With `C#Cc1nc(C2=C(C)C(OC(C)=O)/C(=N/OC(C)=O)C2)cs1` (stereo not drawn) the Activity (WI-38) was “Toxic”, the Activity (MOLT-4) was “inactive” and the Activity (SK-OV-3) was “inactive”. The Activity (NCI-H522 [1]) was 60%, the Activity (NCI-H522 [2]) was roughly 60% and the Activity (SN12C) was “inactive”. The Activity (CAKI-1) was “inactive”, the Activity (MEF) was “Toxic” and the Activity (NCI-H522 [3]) was “Active”. The Activity (HT-1080 [4]) was “Active”, the Activity (NCI/ADR-RES) was “inactive” and the Activity (NCI-H522 [5]) was “Active”. The Activity (OVCAR-3) was “inactive”, the Activity (RXF 393) was “inactive” and the Activity (OVCAR-5) was “inactive”. The inhibition [6] was “inactive”, the CC50 (MDA-MB-231) was 230 nM and the Activity (OVCAR-8) was “inactive”. The Activity (CCRF-CEM) was “inactive”, the Activity (UO-31 [7]) was “inactive” and the Activity (786-0 [8]) was “inactive”. The CC50 (NCI-H522 [9]) was 260 nM, the Activity (SR) was “inactive” and the Activity (OVCAR-4) was “inactive”. The Activity (NCI-H522 [10]) was 50%, the inhibition [11] was “Active” and the CC50 (NCI-H522 [12]) was 170 nM. The Activity (K562) was “inactive”, the CC50 (U2OS) was 7260 nM and the Activity (HL-60) was “inactive”. For the same compound, the Activity [13] was 0.18, the Activity (NCI-H522 [14]) was “Active” and the CC50 (NCI-H522 [15]) was 1590 nM. The inhibition [16] was “Active”, the Activity (IGROV-1) was -95% and the Activity (786-0 [17]) was -95%. The CC50 (HT-1080 [18]) was 140 nM, the Activity (UO-31 [19]) was -95% and the Activity (ACHN) was “inactive”. The Activity (RPMI-8226) was “inactive” and the Activity (TK-10) was “inactive”.
For `C#CCCC(=O)Nc1ccc(C(=O)c2ccc(NC(=O)CO/N=C3\CC(c4csc(C#C)n4)=C(C)C3O)cc2)cc1` (stereo not drawn), the Activity (NCI-H522 [20]) was “inactive”, the CC50 (MDA-MB-231) was 1330 nM and the viability at 7.8 µM (NCI-H522 [21]) was 45%. For the same compound, the CC50 (NCI-H522 [12]) was 2600 nM and the CC50 (HT-1080 [18]) was 1200 nM.
For `C#CCO/N=C1\CC(c2csc(C#C)n2)=C(C)C1O` (stereo not drawn), the Drug uptake [22] was “Active”, the CC50 (MDA-MB-231) was 2700 nM and the Activity (NCI-H522 [23]) was “inactive”. The viability at 6.93 µM (NCI-H522 [24]) was 75%, the CC50 (NCI-H522 [12]) was 2310 nM and the CC50 (HT-1080 [18]) was 1170 nM. The Drug uptake [25] was “Active”.
